Where two headings read alike, the source gives them in different places. *1 amine or outer side, *2 acyl side, *3 side chain or, on linkers, in order; H or OH if unused. Where a SMILES comes first, the peptide text is derived from it. Bridges are numbered along the chain shown (N, C = ends). [ ]: non-standard residue; d: D form. The star is where a group is joined. dNMeaIle = CC[C@H](C)[C@@H](NC)C(=O)O; d(aIle) = CC[C@H](C)[C@@H](N)C(=O)O; NMeI = CC[C@H](C)[C@H](NC)C(=O)O; NMeβAla = CN(CCC(=O)[*:2])[*:1]; dNMeL = CN[C@H](CC(C)C)C(=O)O; dNMeV = CN[C@@H](C(=O)O)C(C)C; NMeV = CN[C@H](C(=O)O)C(C)C; Methoxyacetyl = COCC(=O)*; NMeA = CN[C@@H](C)C(=O)O; βAla = NCCC(=O)O
Legend:
[1] = test system: MCF-7 (human breast cancer cells); settings: 24 h
Procedure: (§1) Finally, the anti-austerity activity on two other different cancer cell lines was studied. Preferential cytotoxicity was assessed in a nutrient-deprived medium. Esumi et al. hypothesized that tolerance to nutrient deprivation as well as angiogenesis might be an important factor in tumor progression under hypovascular condition.
(§2) Briefly, MIA PaCa-2, HepG2 and MCF-7 Cells (2 × 10^4 cells/well) were seeded in 96-well plates and incubated in fresh DMEM. The cells were washed with Dulbecco’s phosphate-buffered saline (PBS) before the medium was replaced with DMEM or NDM containing serial dilutions of the test samples. After 24 h of incubation, the cells were washed with PBS, and 100 μL of DMEM containing 10% WST-8 cell counting kit solution was added to each well. After 3 h of incubation, the absorbance was measured at 450 nm. Cell viability was calculated from the mean values for three wells. The preferential cytotoxicity was expressed as the concentration at which 50% of cells died preferentially in NDM (PC50).

[2] = test system: HepG2 (human liver cancer cells); settings: 24 h
Procedure: as §1, §2

[3] = test system: human pancreatic cancer cell line MIA PaCa-2; settings: 24 h
Procedure: Data are presented as preferential cytotoxicity (PC50) values, which represent the concentration that kills 50% of cancer cells in a nutrient-deprived medium (NDM) without any toxicity in a nutrient-rich medium DMEM (Dulbecco’s Modified Eagle Medium).
as §2
Pancreatic cancer cells (MIA PaCa-2 cells) were kindly provided by Dr. Suresh Awale, an Associate Professor at Institute of Natural Medicine, University Toyama, Toyama, Japan. MIA PaCa-2 (RBRC-RCB2094), human pancreatic cancer cell lines were purchased from Riken BRC cell bank.

Escherichia coli JW5503 = test system: Escherichia coli JW5503
Procedure: (§3) Previously, three theonellapeptolide members capped with a unique acyl group at their N-termini such as methylsulfinylacetyl, methylsulfanylacetyl, and acetyl were isolated by Tsuda et al. from Okinawan marine sponge Theonella sp.. Furthermore, the antibacterial activity of these variants was evaluated against four bacterial and six fungal strains. […] To the best of our knowledge, there is no report on the antibacterial activity of theonellapeptolides with methoxyacetyl group. This encouraged us to investigate the antibacterial activity of 1–6 against the Gram-negative bacterium Escherichia coli JW5503 and the Gram-positive bacteria Bacillus cereus NBRC 15305 and Kocuria rhizophila NBRC 12708.
(§4) After incubation for 22 h (30 °C), the obtained optical density was recorded using Tecan infinite® M200 plate reader at 600 nm to determine percent growth inhibition.

[4] = test system: Kocuria rhizophila NBRC 12708
Procedure: as §3, §4

[5] = test system: Bacillus cereus NBRC 15305
Procedure: as §3, §4

[6] = read-out: IC50 in DMEM, MCF7, nutrient-rich DMEM, WST-8, absorbance 450 nm, mean of three wells
[7] = read-out: PC50 in NDM, MCF7, preferential cytotoxicity, nutrient-deprived medium (NDM), WST-8, mean of three wells
[8] = read-out: IC50 in DMEM, HepG2, nutrient-rich DMEM, WST-8, absorbance 450 nm, mean of three wells
[9] = read-out: PC50 in NDM, HepG2, preferential cytotoxicity, nutrient-deprived medium (NDM), WST-8, mean of three wells
[10] = read-out: IC50 in DMEM, MIA PaCa-2, nutrient-rich DMEM, WST-8, absorbance 450 nm, mean of three wells
[11] = read-out: PC50 in NDM, MIA PaCa-2, preferential cytotoxicity, nutrient-deprived medium (NDM), WST-8, mean of three wells
[12] = Escherichia coli JW5503, 96-well microbroth dilution (CLSI), triplicate, 22 h, 30 °C, OD 600 nm
[13] = Kocuria rhizophila NBRC 12708, 96-well microbroth dilution (CLSI), triplicate, 22 h, 30 °C, OD 600 nm
[14] = Bacillus cereus NBRC 15305, 96-well microbroth dilution (CLSI), triplicate, 22 h, 30 °C, OD 600 nm

## CC[C@H](C)[C@H]1NC(=O)CCNC(=O)[C@@H](C(C)C)N(C)C(=O)[C@@H](CC(C)C)NC(=O)CCNC(=O)[C@@H](NC(=O)[C@@H](CC(C)C)N(C)C(=O)[C@@H](NC(=O)COC)C(C)C)[C@@H](C)OC(=O)[C@@H]([C@@H](C)CC)N(C)C(=O)[C@@H](CC(C)C)NC(=O)CCNC(=O)[C@H](C)NC(=O)[C@H](C(C)C)N(C)C1=O [Compound 1, theonellapeptolide IIb] (Methoxyacetyl-V[dNMeL]T[βAla][dL][dNMeV][βAla][d(aIle)][NMeV]A[βAla][dL][dNMeaIle]; ester 3-C)
[1]; [6]
  IC50: > 100 µM
[1]; [7]
  IC50: > 100 µM
[2]; [8]
  IC50: > 100 µM
[2]; [9]
  IC50: > 100 µM
[3]; [10]
  IC50: > 100 µM
[3]; [11]
  IC50: 42.8 µM
Escherichia coli JW5503; [12]
  MIC, EC: > 66 µM
[4]; NBRC 12708, 22 h
  MIC, KR: > 66 µM
[5]; NBRC 15305, 22 h
  MIC, BC: > 66 µM

## CC[C@H](C)[C@H]1NC(=O)CCNC(=O)[C@@H](C(C)C)NC(=O)[C@@H](CC(C)C)NC(=O)CCNC(=O)[C@@H](NC(=O)[C@@H](CC(C)C)N(C)C(=O)[C@@H](NC(=O)COC)C(C)C)[C@@H](C)OC(=O)[C@@H]([C@@H](C)CC)N(C)C(=O)[C@@H](CC(C)C)NC(=O)CCNC(=O)[C@H](C)NC(=O)[C@H](C(C)C)N(C)C1=O [Compound 2, theonellapeptolide IIa] (Methoxyacetyl-V[dNMeL]T[βAla][dL][dV][βAla][d(aIle)][NMeV]A[βAla][dL][dNMeaIle]; ester 3-C)
[1]; [6]
  IC50: > 100 µM
[1]; [7]
  IC50: > 100 µM
[2]; [8]
  IC50: > 100 µM
[2]; [9]
  IC50: > 100 µM
[3]; [10]
  IC50: > 100 µM
[3]; [11]
  IC50: 33.4 µM
Escherichia coli JW5503; [12]
  MIC, EC: > 66 µM
[4]; [13]
  MIC, KR: > 66 µM
[5]; [14]
  MIC, BC: > 66 µM

## CC[C@H](C)[C@H]1NC(=O)CCNC(=O)[C@H](C(C)C)N(C)C(=O)[C@@H](CC(C)C)NC(=O)CCN(C)C(=O)[C@@H](NC(=O)[C@@H](CC(C)C)N(C)C(=O)[C@@H](NC(=O)COC)C(C)C)[C@@H](C)OC(=O)[C@@H]([C@@H](C)CC)N(C)C(=O)[C@@H](CC(C)C)NC(=O)CCNC(=O)[C@H](C)NC(=O)[C@H](C(C)C)N(C)C1=O [Compound 3, theonellapeptolide IIc] (Methoxyacetyl-V[dNMeL]T[NMeβAla][dL][NMeV][βAla][d(aIle)][NMeV]A[βAla][dL][dNMeaIle]; ester 3-C)
[1]; [6]
  IC50: > 100 µM
[1]; [7]
  IC50: > 100 µM
[2]; [8]
  IC50: > 100 µM
[2]; [9]
  IC50: > 100 µM
[3]; [10]
  IC50: 73.2 µM
[3]; [11]
  IC50: 10 µM
Escherichia coli JW5503; [12]
  MIC, EC: > 66 µM
[4]; [13]
  MIC, KR: > 66 µM
[5]; [14]
  MIC, BC: > 66 µM

## CC[C@H](C)[C@H]1C(=O)NCCC(=O)N[C@H]([C@@H](C)CC)C(=O)N(C)[C@@H](C(C)C)C(=O)N[C@@H](C)C(=O)NCCC(=O)N[C@H](CC(C)C)C(=O)N(C)[C@H]([C@@H](C)CC)C(=O)O[C@H](C)[C@H](NC(=O)[C@@H](CC(C)C)N(C)C(=O)[C@@H](NC(=O)COC)C(C)C)C(=O)N(C)CCC(=O)N[C@H](CC(C)C)C(=O)N1C [Compound 5, theonellapeptolide IIe] (Methoxyacetyl-V[dNMeL]T[NMeβAla][dL][NMeI][βAla][d(aIle)][NMeV]A[βAla][dL][dNMeaIle]; ester 3-C)
[1]; [6]
  IC50: > 100 µM
[1]; [7]
  IC50: > 100 µM
[2]; [8]
  IC50: > 100 µM
[2]; [9]
  IC50: > 100 µM
[3]; [10]
  IC50: 40.4 µM
[3]; [11]
  IC50: 3.5 µM
Escherichia coli JW5503; JW5503, 22 h
  MIC, EC: > 66 µM
[4]; NBRC 12708, 22 h
  MIC, KR: > 66 µM
[5]; NBRC 15305, 22 h
  MIC, BC: > 66 µM

## CC[C@H](C)[C@H]1C(=O)NCCC(=O)N[C@H]([C@@H](C)CC)C(=O)N(C)[C@@H](C(C)C)C(=O)N(C)[C@@H](C)C(=O)NCCC(=O)N[C@H](CC(C)C)C(=O)N(C)[C@H]([C@@H](C)CC)C(=O)O[C@H](C)[C@H](NC(=O)[C@@H](CC(C)C)N(C)C(=O)[C@@H](NC(=O)COC)C(C)C)C(=O)NCCC(=O)N[C@H](CC(C)C)C(=O)N1C [Compound 6, theonellapeptolide Id] (Methoxyacetyl-V[dNMeL]T[βAla][dL][NMeI][βAla][d(aIle)][NMeV][NMeA][βAla][dL][dNMeaIle]; ester 3-C)
[1]; [6]
  IC50: > 100 µM
[1]; [7]
  IC50: > 100 µM
[2]; [8]
  IC50: > 100 µM
[2]; [9]
  IC50: > 100 µM
[3]; [10]
  IC50: 42.7 µM
[3]; [11]
  IC50: 8.2 µM
Escherichia coli JW5503; JW5503, 22 h
  MIC, EC: > 66 µM
[4]; NBRC 12708, 22 h
  MIC, KR: > 66 µM
[5]; NBRC 15305, 22 h
  MIC, BC: > 66 µM

From PMC9697519, “New Theonellapeptolides from Indonesian Marine Sponge Theonella swinhoei as Anti-Austerity Agents” (Marine Drugs, 2022)
